SMILES strings stand for the structures.

This experiment can be described thus: itch prevention effect experiment (somesthetic testing, powder applied to the skin over the whole body). The format is in vivo, examinees (male: 2, female: 1). To be noted: for proportion of itch: itches without application set to 100, climbing/running 100 times, eight hours from test start; for itch removal / itch prevention effect bodily sensed: somesthetic testing, result in words. The protocol: Purpose of Experiment The fine powder of the aluminum chloride hexahydrate and the cyclodextrin (referred to as the CD) were each used alone for application to the skin over the whole body. From the result, whether the itch prevention effect was able to be bodily sensed or not was determined through somesthetic testing.
Participated Examinees three (male: 2, female: 1)
Testing Method Fine powder compositions of Experiment 1 to Experiment 3 were applied to the skin over the whole body. The climbing of a low mountain (altitude: 300 to 400 m) of 2 to 20 km and running of 2 to 15 km were executed 100 times appropriately for all seasons and for two years with the respective samples. Whether the itch was clearly removed or not and the appearance of the itch was able to be prevented or not were measured setting eight hours from the test start as terminal time. During the period, the somesthetic testing was conducted for determination. The total count of itches developed without application of various kinds of fine powder agents to the skin over the whole body (the head, the face, the body, and the entire feet) was set to 100. The degree of the itch was indicated by a “proportion of itch.”

As for `OC[C@H]1O[C@@H]2O[C@H]3[C@H](O)[C@@H](O)[C@@H](O[C@H]4[C@H](O)[C@@H](O)[C@@H](O[C@H]5[C@H](O)[C@@H](O)[C@@H](O[C@H]6[C@H](O)[C@@H](O)[C@@H](O[C@H]7[C@H](O)[C@@H](O)[C@@H](O[C@H]8[C@H](O)[C@@H](O)[C@@H](O[C@H]1[C@H](O)[C@H]2O)O[C@@H]8CO)O[C@@H]7CO)O[C@@H]6CO)O[C@@H]5CO)O[C@@H]4CO)O[C@@H]3CO` [β-CD], the proportion of itch was found to be 100% and the “itch removal / itch prevention effect bodily sensed” value is reported as “the itch prevention effect was not able to be bodily sensed”.

Take `OC[C@H]1O[C@@H]2O[C@H]3[C@H](O)[C@@H](O)[C@@H](O[C@H]4[C@H](O)[C@@H](O)[C@@H](O[C@H]5[C@H](O)[C@@H](O)[C@@H](O[C@H]6[C@H](O)[C@@H](O)[C@@H](O[C@H]7[C@H](O)[C@@H](O)[C@@H](O[C@H]1[C@H](O)[C@H]2O)O[C@@H]7CO)O[C@@H]6CO)O[C@@H]5CO)O[C@@H]4CO)O[C@@H]3CO` [α-CD]: the proportion of itch came to 100% and the “itch removal / itch prevention effect bodily sensed” value was “The itch was not removed”.

As for `OC[C@H]1O[C@@H]2O[C@H]3[C@H](O)[C@@H](O)[C@@H](O[C@H]4[C@H](O)[C@@H](O)[C@@H](O[C@H]5[C@H](O)[C@@H](O)[C@@H](O[C@H]6[C@H](O)[C@@H](O)[C@@H](O[C@H]7[C@H](O)[C@@H](O)[C@@H](O[C@H]8[C@H](O)[C@@H](O)[C@@H](O[C@H]9[C@H](O)[C@@H](O)[C@@H](O[C@H]1[C@H](O)[C@H]2O)O[C@@H]9CO)O[C@@H]8CO)O[C@@H]7CO)O[C@@H]6CO)O[C@@H]5CO)O[C@@H]4CO)O[C@@H]3CO` [γ-CD], the proportion of itch was 100% and the “itch removal / itch prevention effect bodily sensed” value is “the itch prevention effect was not able to be bodily sensed”.
